Assay results taken from US20240174618A1, “SUBSTITUTED (2-HETEROARYLOXYPHENYL)SULFONATES, SALTS THEREOF AND THEIR USE AS HERBICIDAL AGENTS” (Bayer Aktiengesellschaft, priority 2021, published 2024).

Columns and labels:
Assay type in all cases: in vivo
[1] = system: Abutilon theophrasti (ABUTH); test: A. Herbicidal pre-emergence efficacy, ABUTH; conditions: scored visually after about 3 weeks vs untreated controls
In short: (§1)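 Pre-emergence soil-surface spray in sandy loam pots, WP/EC in water plus 0.5% additive, 600 L/ha. Visual % damage rating after about 3 weeks in greenhouse vs. untreated; 0% = control-like, 100% = dead plants. Rates up to 1280 g/ha.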

[2] = system: Alopecurus myosuroides (ALOMY); test: A. Herbicidal pre-emergence efficacy, ALOMY; conditions: scored visually after about 3 weeks vs untreated controls
In short: as §1

[3] = system: Alopecurus myosuroides (ALOMY); test: B. Herbicidal post-emergence efficacy, ALOMY; conditions: 1280 g/ha, rated visually after about 3 weeks
Procedure: (§2) Seeds of mono- and dicotyledonous weed plants were placed in plastic pots in sandy loam soil (doubly sown with in each case one species of mono- or dicotyledonous weed plants per pot), covered with soil and cultivated in a greenhouse under controlled growth conditions. 2 to 3 weeks after sowing, the test plants were treated at the one-leaf stage. The compounds of the invention, formulated in the form of wettable powders (WP) or as emulsion concentrates (EC), were applied onto the green parts of the plants as aqueous suspension or emulsion with addition of 0.5% additive at a water application rate of 600 liters per hectare (converted). After the test plants had been kept in the greenhouse under optimum growth conditions for about 3 weeks, the activity of the preparations was rated visually in comparison to untreated controls.
(§3) For example, • 100% efficacy=plants have died, • 0% efficacy=like untreated control plants
(§4) Tables B1a to B12c below show the effects of selected inventive compounds of the general formula (I) according to table 1 on various harmful plants at an application rate corresponding to 1280 g/ha or less, which were obtained by the experimental procedure mentioned above.

[4] = system: Lolium rigidum (LOLRI); test: B. Herbicidal post-emergence efficacy, LOLRI
Procedure: as §2, §3, §4

[5] = system: Zea mays (ZEAMX); test: D. Pre-emergence effect on useful plants, ZEAMX; conditions: useful plant
In short: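 Seeds sown in pots and covered with soil; WP or EC formulations sprayed on the soil surface as aqueous suspension/emulsion with 0.5% additive at 600 l/ha water. Plants grown in greenhouse; crop damage scored visually after about 3 weeks as % versus untreated controls (100% = dead, 0% = like control).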

[6] = system: Zea mays (ZEAMX); test: F. Post-emergence effect on useful plants, ZEAMX; conditions: useful plant
In short: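 Crop plants grown in sandy loam in the greenhouse were sprayed at the one-leaf stage, 2-3 weeks after sowing, with WP or EC formulations plus 0.5% additive at 600 l/ha water. Damage was scored visually after about 3 weeks against untreated controls (0% = like control, 100% = dead).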

[7] = system: Pharbitis purpurea (PHBPU); test: C. Herbicidal pre-emergence efficacy, PHBPU; conditions: scored after about 3 weeks
Text: (§5) Seeds of monocotyledonous and dicotyledonous weed plants and crop plants were placed in plastic or organic planting pots and covered with soil. The compounds of the invention, formulated in the form of wettable powders (WP) or as emulsion concentrates (EC), were then applied to the surface of the covering soil as aqueous suspension or emulsion with addition of 0.5% additive at a water application rate equivalent to 600 l/ha (converted). After the treatment, the pots were placed in a greenhouse and kept under good growth conditions for the test plants. After about 3 weeks, the efficacy of the preparations was scored visually in comparison with untreated controls as percentages. For example, • 100% efficacy=plants have died, • 0% efficacy=like untreated control plants.
(§6) Tables C1a to C14b below show the effects of selected compounds of the general formula (I) according to table 1 on various harmful plants at an application rate corresponding to 320 g/ha or less, which were obtained by the experimental procedure mentioned above.

[8] = system: Digitaria sanguinalis (DIGSA); test: E. Herbicidal post-emergence efficacy, DIGSA
Procedure: Seeds of monocotyledonous and dicotyledonous weeds and crop plants were placed in sandy loam in plastic or organic planting pots, covered with soil and cultivated in a greenhouse under controlled growth conditions. 2 to 3 weeks after sowing, the test plants were treated at the one-leaf stage. The compounds of the invention, formulated in the form of wettable powders (WP) or as emulsion concentrates (EC), were then sprayed onto the green parts of the plants as aqueous suspension or emulsion with addition of 0.5% additive at a water application rate of 600 l/ha (converted). After the test plants had been kept in the greenhouse under optimum growth conditions for about 3 weeks, the activity of the preparations was rated visually in comparison to untreated controls.
For example, • 100% efficacy=plants have died, • 0% action=like untreated control plants.
Tables E1a to E12b below show the effects of selected compounds of the general formula (I) according to table 1 on various harmful plants at an application rate corresponding to 320 g/ha or less, which were obtained by the experimental procedure mentioned above.

[9] = system: Matricaria inodora (MATIN); test: C. Herbicidal pre-emergence efficacy, MATIN; conditions: scored after about 3 weeks
Text: as §5, §6

[10] = system: Avena fatua (AVEFA); test: C. Herbicidal pre-emergence efficacy, AVEFA; conditions: 320 g/ha, scored after about 3 weeks
Text: as §5, §6

| Structure (SMILES) | Pre-emergence efficacy against ZEAMX in % ([5]; application rate 80 g/ha) | Post-emergence efficacy against ZEAMX in % ([6]; application rate 80 g/ha) | Pre-emergence efficacy against ZEAMX in % ([5]; application rate 320 g/ha) | Pre-emergence efficacy against ABUTH ([1]; 1280 g/ha) | Pre-emergence efficacy against ALOMY ([2]; 1280 g/ha) | Post-emergence efficacy against ALOMY in % [3] | Post-emergence efficacy against LOLRI ([4]; 1280 g/ha) | Pre-emergence efficacy against ABUTH ([1]; 80 g/ha) | Pre-emergence efficacy against ABUTH ([1]; 320 g/ha) | Post-emergence efficacy against LOLRI ([4]; 320 g/ha) | Pre-emergence efficacy against PHBPU ([7]; 320 g/ha) | Post-emergence efficacy against DIGSA in % ([8]; application rate 80 g/ha) | Post-emergence efficacy against DIGSA in % ([8]; application rate 320 g/ha) | Pre-emergence efficacy against PHBPU ([7]; 80 g/ha) | Post-emergence efficacy against ZEAMX in % ([6]; application rate 320 g/ha) | Pre-emergence efficacy against MATIN ([9]; 80 g/ha) | Pre-emergence efficacy against MATIN ([9]; 320 g/ha) | Pre-emergence efficacy against AVEFA [10] | Pre-emergence efficacy against ALOMY ([2]; 320 g/ha) |
| --- | --- | --- | --- | --- | --- | --- | --- | --- | --- | --- | --- | --- | --- | --- | --- | --- | --- | --- | --- |
| O=S(=O)(CCCCCl)Oc1ccccc1Oc1ncc(Cl)cn1 [Example I-15] |  |  |  | 100% |  |  | 90% | 100% | 100% | 90% | 90% | 80% | 90% |  |  |  |  |  |  |
| O=S(=O)(CCCC(F)(F)F)Oc1c(F)cccc1Oc1ncc(Br)cn1 [Example I-41] |  | 0% |  | 100% | 100% | 90% | 90% |  | 100% |  | 100% | 100% | 100% | 80% | 20% |  |  |  |  |
| CCCCCS(=O)(=O)Oc1ccccc1Oc1ncc(Cl)cn1 [Example I-24] | 0% | 20% | 0% |  |  |  | 90% |  |  |  |  |  |  |  |  |  |  |  |  |
| O=S(=O)(CCCC(F)(F)F)Oc1c(F)cccc1Oc1ncc(Cl)cn1 [Example I-49] |  |  |  | 100% | 90% | 90% | 90% | 100% | 100% |  | 100% | 90% | 100% | 90% |  | 80% | 100% |  |  |
| O=S(=O)(CCC(F)(F)F)Oc1c(Cl)cccc1Oc1ncc(Cl)cn1 [Example I-38] |  |  |  | 100% | 100% |  | 90% | 100% | 100% |  |  |  | 90% |  |  | 80% | 80% |  |  |
| CCCCS(=O)(=O)Oc1ccccc1Oc1ncc(Cl)cn1 [Example I-6] |  |  |  | 100% | 90% |  |  | 100% | 100% |  | 80% | 80% | 100% |  |  |  |  | 80% |  |
| O=S(=O)(CCC(F)(F)F)Oc1c(Cl)cccc1Oc1ncc(Br)cn1 [Example I-32] |  | 20% |  | 100% | 90% | 90% | 90% |  | 90% |  |  |  | 90% |  |  |  | 80% |  |  |
| CC(C)CS(=O)(=O)Oc1ccccc1Oc1ncc(Cl)cn1 [Example I-7, [2-(5-Chloropyrimidin-2-yl)oxyphenyl] 2-methylpropane-1-sulfonate] |  |  |  | 100% |  |  |  |  | 90% |  |  | 90% | 100% |  |  |  |  | 90% |  |
| O=S(=O)(CCC(F)(F)F)Oc1c(F)cccc1Oc1ncc(Br)cn1 [Example I-40] |  |  |  | 100% | 100% |  |  | 100% | 100% |  | 100% | 80% | 100% |  |  |  | 80% | 100% | 90% |

The next lines start with results.

| Pre-emergence efficacy against ZEAMX in % ([5]; application rate 80 g/ha) | Post-emergence efficacy against ZEAMX in % ([6]; application rate 80 g/ha) | Pre-emergence efficacy against ZEAMX in % ([5]; application rate 320 g/ha) | Structure (SMILES) | Pre-emergence efficacy against ABUTH ([1]; 1280 g/ha) | Pre-emergence efficacy against ALOMY ([2]; 1280 g/ha) | Post-emergence efficacy against ALOMY in % [3] | Post-emergence efficacy against LOLRI ([4]; 1280 g/ha) | Pre-emergence efficacy against ABUTH ([1]; 80 g/ha) | Pre-emergence efficacy against ABUTH ([1]; 320 g/ha) | Post-emergence efficacy against LOLRI ([4]; 320 g/ha) | Pre-emergence efficacy against PHBPU ([7]; 320 g/ha) | Post-emergence efficacy against DIGSA in % ([8]; application rate 80 g/ha) | Post-emergence efficacy against DIGSA in % ([8]; application rate 320 g/ha) | Pre-emergence efficacy against PHBPU ([7]; 80 g/ha) | Post-emergence efficacy against ZEAMX in % ([6]; application rate 320 g/ha) | Pre-emergence efficacy against MATIN ([9]; 80 g/ha) | Pre-emergence efficacy against MATIN ([9]; 320 g/ha) | Pre-emergence efficacy against AVEFA [10] | Pre-emergence efficacy against ALOMY ([2]; 320 g/ha) |
| --- | --- | --- | --- | --- | --- | --- | --- | --- | --- | --- | --- | --- | --- | --- | --- | --- | --- | --- | --- |
| 0% | 0% |  | Cc1cccc(Oc2ncc(Cl)cn2)c1OS(=O)(=O)CC1CC(F)(F)C1 [Example I-74] | 90% | 90% | 90% | 100% |  |  |  |  |  |  |  |  |  |  |  |  |
| 20% |  |  | Cc1cccc(OS(=O)(=O)CCCCl)c1Oc1ncc(Cl)cn1 [Example I-12] | 100% |  |  | 90% | 90% | 90% | 90% |  |  |  |  |  |  |  |  |  |
| 0% | 0% |  | COCCS(=O)(=O)Oc1c(F)cccc1Oc1ncc(Cl)cn1 [Example I-52] | 100% |  |  | 90% |  | 100% |  |  |  |  |  | 0% |  |  |  |  |
|  | 20% |  | O=S(=O)(CCC(F)=C(F)F)Oc1c(Cl)cccc1Oc1ncc(Cl)cn1 [Example I-73] | 90% |  | 90% | 90% |  |  |  |  |  |  |  |  |  |  |  |  |
|  | 20% |  | O=S(=O)(CCCC(F)F)Oc1c(F)cccc1Oc1ncc(Cl)cn1 [Example I-56] | 100% | 100% |  |  | 100% | 100% |  | 100% |  | 100% | 100% |  |  |  | 80% | 90% |
